“And” between values parts separate entries of the source, which are not always exact repeats. Equal values may be shown once. Read-outs that look alike come from different tables or passages of the source.
Test: Pharmacokinetics in CD-1 mice (plasma concentrations, PK parameters)
Type: in vivo
Settings: for concentration at 5 min / concentration at 0.5 h / concentration at 1 h / concentration at 2 h / concentration at 4 h / concentration at 24 h / concentration at 6 h: read-out: Concentration; for AUC(0-inf): read-out: AUCInf; for AUC(0-t): read-out: AUClast; for MRT inf: read-out: MRTInf_obs
Experimental: Pharmacokinetics for I-127, I-172 and I-210 were determined in Sprague Dawley rats or CD-1 mice by dosing intravenous (IV), subcutaneous (SC) or per oral (PO) using facility SOPs and sampling plasma at required time points. Species, formulation, route of administration and time points samples are listed below for each compound.
Compounds were extracted from plasma, injected on reverse phase HPLC, eluted with a gradient from 5% to 95% acetonitrile in water and quantified by mass spectrometry with internal standard. Data are expressed in ng compound per mL of plasma.

[1] = CD-1, mouse, plasma, iv, 2 mg/kg, mouse (CD1) iv 2 mg/kg, Mean
[2] = CD-1, mouse, plasma, iv, 2 mg/kg, mouse (CD1) iv 2 mg/kg, individual Mouse 1-3
[3] = CD-1, mouse, plasma, sc, 30 mg/kg, mouse (CD1) sc 30 mg/kg, Mean
[4] = CD-1, mouse, plasma, sc, 30 mg/kg, mouse (CD1) sc 30 mg/kg, individual Mouse 7-9
[5] = mouse (CD1) iv 2 mg/kg, individual Mouse 1-3, 2 mg/kg
[6] = mouse (CD1) sc 30 mg/kg, individual Mouse 7-9, 30 mg/kg

## NC(=O)c1nn(-c2ccc(C(=O)NCCCCCNCCNc3cccc4c3C(=O)N(C3CCC(=O)NC3=O)C4=O)cc2)cc1NC(=O)c1coc(-c2ccnc(NCC(F)(F)F)c2)n1 (stereo not shown) [I-172, N-[3-carbamoyl-1-[4-[5-[2-[[2-(2,6-dioxo-3-piperidyl)-1,3-dioxo-isoindolin-4-yl]amino]ethylamino]pentylcarbamoyl]phenyl]pyrazol-4-yl]-2-[2-(2,2,2-trifluoroethylamino)-4-pyridyl]oxazole-4-carboxamide]
CD-1, mouse, plasma, iv, 2 mg/kg, mouse (CD1) iv 2 mg/kg, 5 min, Mean
  concentration at 5 min: 3420 ng/mL
CD-1, mouse, plasma, iv, 2 mg/kg, mouse (CD1) iv 2 mg/kg, 5 min, individual Mouse 1-3
  concentration at 5 min: 4150 ng/mL
CD-1, mouse, plasma, iv, 2 mg/kg, mouse (CD1) iv 2 mg/kg, 0.25 h, Mean
  concentration at 0.25 h: 387 ng/mL
CD-1, mouse, plasma, iv, 2 mg/kg, mouse (CD1) iv 2 mg/kg, 0.25 h, individual Mouse 1-3
  concentration at 0.25 h: 444 ng/mL
CD-1, mouse, plasma, iv, 2 mg/kg, mouse (CD1) iv 2 mg/kg, 0.5 h, Mean
  concentration at 0.5 h: 123 ng/mL
CD-1, mouse, plasma, iv, 2 mg/kg, mouse (CD1) iv 2 mg/kg, 0.5 h, individual Mouse 1-3
  concentration at 0.5 h: 130 ng/mL
CD-1, mouse, plasma, iv, 2 mg/kg, mouse (CD1) iv 2 mg/kg, 1 h, Mean
  concentration at 1 h: 34.7 ng/mL
CD-1, mouse, plasma, iv, 2 mg/kg, mouse (CD1) iv 2 mg/kg, 1 h, individual Mouse 1-3
  concentration at 1 h: 34.3 ng/mL
CD-1, mouse, plasma, iv, 2 mg/kg, mouse (CD1) iv 2 mg/kg, 2 h, Mean
  concentration at 2 h: 12.6 ng/mL
CD-1, mouse, plasma, iv, 2 mg/kg, mouse (CD1) iv 2 mg/kg, 2 h, individual Mouse 1-3
  concentration at 2 h: 11.5 ng/mL
CD-1, mouse, plasma, iv, 2 mg/kg, mouse (CD1) iv 2 mg/kg, 4 h, Mean
  concentration at 4 h: 7.77 ng/mL
CD-1, mouse, plasma, iv, 2 mg/kg, mouse (CD1) iv 2 mg/kg, 4 h, individual Mouse 1-3
  concentration at 4 h: 9.04 ng/mL
CD-1, mouse, plasma, iv, 2 mg/kg, mouse (CD1) iv 2 mg/kg, 8 h, Mean
  concentration at 8 h: 2.46 ng/mL
CD-1, mouse, plasma, iv, 2 mg/kg, mouse (CD1) iv 2 mg/kg, 8 h, individual Mouse 1-3
  concentration at 8 h: 2.62 ng/mL
CD-1, mouse, plasma, iv, 2 mg/kg, mouse (CD1) iv 2 mg/kg, 24 h, individual Mouse 1-3
  concentration at 24 h: 2.55 ng/mL
[1]
  half-life: 2.53 h
  AUC(0-inf): 1070 ng·h/mL
  AUC(0-t): 1060 ng·h/mL
  MRT inf: 0.61 h
CD-1, mouse, plasma, iv, 2 mg/kg, mouse (CD1) iv 2 mg/kg, Mean, read-out: C0
  C0: 10200 ng/mL
[2]
  half-life: 2.71 h
  AUC(0-inf): 1270 ng·h/mL
  AUC(0-t): 1260 ng·h/mL
CD-1, mouse, plasma, iv, 2 mg/kg, mouse (CD1) iv 2 mg/kg, individual Mouse 1-3, read-out: C0
  C0: 12700 ng/mL
CD-1, mouse, plasma, sc, 30 mg/kg, mouse (CD1) sc 30 mg/kg, 0.25 h, Mean
  concentration at 0.25 h: 43.1 ng/mL
CD-1, mouse, plasma, sc, 30 mg/kg, mouse (CD1) sc 30 mg/kg, 0.25 h, individual Mouse 7-9
  concentration at 0.25 h: 34.6 ng/mL
CD-1, mouse, plasma, sc, 30 mg/kg, mouse (CD1) sc 30 mg/kg, 0.5 h, Mean
  concentration at 0.5 h: 64.8 ng/mL
CD-1, mouse, plasma, sc, 30 mg/kg, mouse (CD1) sc 30 mg/kg, 0.5 h, individual Mouse 7-9
  concentration at 0.5 h: 71.9 ng/mL
CD-1, mouse, plasma, sc, 30 mg/kg, mouse (CD1) sc 30 mg/kg, 1 h, Mean
  concentration at 1 h: 64.8 ng/mL
CD-1, mouse, plasma, sc, 30 mg/kg, mouse (CD1) sc 30 mg/kg, 1 h, individual Mouse 7-9
  concentration at 1 h: 52.6 ng/mL
CD-1, mouse, plasma, sc, 30 mg/kg, mouse (CD1) sc 30 mg/kg, 2 h, Mean
  concentration at 2 h: 50.8 ng/mL
CD-1, mouse, plasma, sc, 30 mg/kg, mouse (CD1) sc 30 mg/kg, 2 h, individual Mouse 7-9
  concentration at 2 h: 48 ng/mL
CD-1, mouse, plasma, sc, 30 mg/kg, mouse (CD1) sc 30 mg/kg, 4 h, Mean
  concentration at 4 h: 37.3 ng/mL
CD-1, mouse, plasma, sc, 30 mg/kg, mouse (CD1) sc 30 mg/kg, 4 h, individual Mouse 7-9
  concentration at 4 h: 33.3 ng/mL
CD-1, mouse, plasma, sc, 30 mg/kg, mouse (CD1) sc 30 mg/kg, 6 h, Mean
  concentration at 6 h: 19.4 ng/mL
CD-1, mouse, plasma, sc, 30 mg/kg, mouse (CD1) sc 30 mg/kg, 6 h, individual Mouse 7-9
  concentration at 6 h: 16 ng/mL
CD-1, mouse, plasma, sc, 30 mg/kg, mouse (CD1) sc 30 mg/kg, 24 h, Mean
  concentration at 24 h: 5.33 ng/mL
CD-1, mouse, plasma, sc, 30 mg/kg, mouse (CD1) sc 30 mg/kg, 24 h, individual Mouse 7-9
  concentration at 24 h: 5.4 ng/mL
[3]
  half-life: 8 h
  AUC(0-inf): 538 ng·h/mL
  AUC(0-t): 476 ng·h/mL
  MRT inf: 9.4 h
CD-1, mouse, plasma, sc, 30 mg/kg, mouse (CD1) sc 30 mg/kg, Mean, read-out: Cmax
  Cmax: 71.2 ng/mL
CD-1, mouse, plasma, sc, 30 mg/kg, mouse (CD1) sc 30 mg/kg, Mean, read-out: Tmax
  Tmax: 0.833 h
[4]
  half-life: 8.79 h
  AUC(0-inf): 491 ng·h/mL
  AUC(0-t): 422 ng·h/mL
  MRT inf: 10.4 h
CD-1, mouse, plasma, sc, 30 mg/kg, mouse (CD1) sc 30 mg/kg, individual Mouse 7-9, read-out: Cmax
  Cmax: 71.9 ng/mL
CD-1, mouse, plasma, sc, 30 mg/kg, mouse (CD1) sc 30 mg/kg, individual Mouse 7-9, read-out: Tmax
  Tmax: 0.5 h
Mouse (CD1) iv 2 mg/kg, 5 min, individual Mouse 1-3, 2 mg/kg
  Concentration: 2810 ng/mL and 3290 ng/mL
Mouse (CD1) iv 2 mg/kg, 0.25 h, individual Mouse 1-3, 2 mg/kg
  Concentration: 314 ng/mL and 404 ng/mL
Mouse (CD1) iv 2 mg/kg, 0.5 h, individual Mouse 1-3, 2 mg/kg
  Concentration: 102 ng/mL and 136 ng/mL
Mouse (CD1) iv 2 mg/kg, 1 h, individual Mouse 1-3, 2 mg/kg
  Concentration: 31.5 ng/mL and 38.2 ng/mL
Mouse (CD1) iv 2 mg/kg, 2 h, individual Mouse 1-3, 2 mg/kg
  Concentration: 11.7 ng/mL and 14.6 ng/mL
Mouse (CD1) iv 2 mg/kg, 4 h, individual Mouse 1-3, 2 mg/kg
  Concentration: 6.56 ng/mL and 7.70 ng/mL
Mouse (CD1) iv 2 mg/kg, 8 h, individual Mouse 1-3, 2 mg/kg
  Concentration: 2.07 ng/mL and 2.69 ng/mL
Mouse (CD1) iv 2 mg/kg, 24 h, individual Mouse 1-3, 2 mg/kg
  Concentration: BLOQ
Mouse (CD1) iv 2 mg/kg, Mean
  AUC_%Extrap_obs: 0.826%
  AUClast/D: 532 h·ng/mL per mg/kg
  Cl_obs: 31.8 mL/min/kg
  Vss_obs: 1.15 L/kg
[5]
  AUCInf: 877 ng·h/mL and 1067 ng·h/mL
  AUC_%Extrap_obs: 0.805% and 0.818% and 0.856%
  AUClast: 870 ng·h/mL and 1058 ng·h/mL
  AUClast/D: 632 h·ng/mL per mg/kg and 435 h·ng/mL per mg/kg and 529 h·ng/mL per mg/kg
  C0: 8401 ng/mL and 9383 ng/mL
  Cl_obs: 26.2 mL/min/kg and 38.0 mL/min/kg and 31.2 mL/min/kg
  MRTInf_obs: 0.332 h and 0.362 h and 1.13 h
  T1/2: 2.40 h and 2.48 h
  Vss_obs: 0.522 L/kg and 0.826 L/kg and 2.11 L/kg
Mouse (CD1) po 30 mg/kg, 0.25 h, individual Mouse 4-6
  Concentration: BLOQ
Mouse (CD1) po 30 mg/kg, 0.5 h, individual Mouse 4-6
  Concentration: BLOQ
Mouse (CD1) po 30 mg/kg, 1 h, individual Mouse 4-6
  Concentration: BLOQ
Mouse (CD1) po 30 mg/kg, 2 h, individual Mouse 4-6
  Concentration: BLOQ
Mouse (CD1) po 30 mg/kg, 4 h, individual Mouse 4-6
  Concentration: BLOQ
Mouse (CD1) po 30 mg/kg, 8 h, individual Mouse 4-6
  Concentration: BLOQ
Mouse (CD1) po 30 mg/kg, 24 h, individual Mouse 4-6
  Concentration: BLOQ
Mouse (CD1) sc 30 mg/kg, 0.25 h, individual Mouse 7-9, 30 mg/kg
  Concentration: 40.0 ng/mL and 54.6 ng/mL
Mouse (CD1) sc 30 mg/kg, 0.5 h, individual Mouse 7-9, 30 mg/kg
  Concentration: 57.6 ng/mL and 64.8 ng/mL
Mouse (CD1) sc 30 mg/kg, 1 h, individual Mouse 7-9, 30 mg/kg
  Concentration: 63.0 ng/mL and 78.7 ng/mL
Mouse (CD1) sc 30 mg/kg, 2 h, individual Mouse 7-9, 30 mg/kg
  Concentration: 46.5 ng/mL and 58.0 ng/mL
Mouse (CD1) sc 30 mg/kg, 4 h, individual Mouse 7-9, 30 mg/kg
  Concentration: 37.0 ng/mL and 41.6 ng/mL
Mouse (CD1) sc 30 mg/kg, 6 h, individual Mouse 7-9, 30 mg/kg
  Concentration: 20.7 ng/mL and 21.5 ng/mL
Mouse (CD1) sc 30 mg/kg, 24 h, individual Mouse 7-9, 30 mg/kg
  Concentration: 4.74 ng/mL and 5.85 ng/mL
Mouse (CD1) sc 30 mg/kg, Mean
  AUC_%Extrap_obs: 11.5%
  AUClast/D: 15.9 h·ng/mL per mg/kg
  F: 3.34%
[6]
  AUCInf: 522 ng·h/mL and 601 ng·h/mL
  AUC_%Extrap_obs: 14.0% and 9.60% and 11.1%
  AUClast: 472 ng·h/mL and 535 ng·h/mL
  AUClast/D: 14.1 h·ng/mL per mg/kg and 15.7 h·ng/mL per mg/kg and 17.8 h·ng/mL per mg/kg
  Cmax: 63.0 ng/mL and 78.7 ng/mL
  F: 3.05% and 3.25% and 3.74%
  MRTInf_obs: 8.61 h and 9.13 h
  T1/2: 7.34 h and 7.89 h
  Tmax: 1 h

Source: US10874743B2, “IRAK degraders and uses thereof” (Kymera Therapeutics, Inc., priority 2017, dated 2020)
